According to patent US8895613B2 (priority 2013, dated 2014):

Assays:
[1] = molecular target: neuraminidase of influenza virus A/California/04/09 (Influenza A virus, UniProt C3W5S3); type: biochemical; conditions: for IC50: read-out: neuraminidase activity IC50
[2] = system: virus strain Ia/California/07/09 (H1N1); experiment: microbe, parasite or virus in culture; type: cell-based, influenza virus Ia/California/07/09 (H1N1) in MDCK cells; conditions: for IC50: Influenza A virus, H1N1, MDCK
[3] = molecular target: neuraminidase of influenza virus A/California/07/09 (H1N1) (Influenza A virus, UniProt C3W6G3); type: biochemical; conditions: read-out: IC50, nM (number of experiments)
[4] = molecular target: neuraminidase of influenza virus B/Pert/211/2001 (197D) (Influenza B virus, UniProt Q3S340); type: biochemical; conditions: read-out: IC50, nM (number of experiments)
[5] = molecular target: neuraminidase of influenza virus A/Aichi/2/69 (H3N2) (Influenza A virus, UniProt Q75VQ4); type: biochemical; conditions: read-out: IC50, nM (number of experiments)
[6] = system: highly pathogenic strain Ia/duck/MN/1525/81 (H5N1); experiment: microbe, parasite or virus in culture; type: cell-based, influenza virus Ia/duck/MN/1525/81 (H5N1) in MDCK cells; conditions: for IC50: Influenza A virus, H5N1, MDCK
[7] = molecular target: neuraminidase of influenza virus B/Brisbane/60/2008 (Influenza B virus, UniProt C0LT34); type: biochemical; conditions: read-out: IC50, nM (number of experiments)
[8] = system: influenza virus A/Aichi/2/69 (H3N2); parameters: species or system mice; conditions: mouse, in vivo; for efficiency of treating influenza pneumonia in mice: po, 25 mg/kg/day

CCC(CC)O[C@@H]1C=C(C(=O)O)C[C@H](NC(=N)N)[C@H]1NC(=O)CF [1.1, (3R,4R,5S)-5-guanidino-4-fluoroacetamido-3-(pentan-3-yloxy)cyclohex-1-enecarboxylic acid]
times more active than A2 [1]: 4
times more active than A4 [1]: 400
more active than Oseltamivir carboxylate (A2) by factor [2]: 13
more active than Zanamivir (Zan) by factor [2]: 20
IC50 [2]: 780 nM
IC50 [3]: 0.18 nM
IC50 [4]: 2.08 nM
IC50 [5]: 0.69 nM
activity higher than that of Oseltamivir carboxylate, times [6]: 24
activity higher than that of Zanamivir (Zan), times [6]: 16
IC50 [6]: 3200 nM
IC50 [7]: 1.27 nM

CCOC(=O)C1=C[C@@H](OC(CC)CC)[C@H](NC(=O)CF)[C@@H](NC(=N)N)C1 [1.3, ethyl (3R,4R,5S)-5-guanidino-4-fluoroacetamido-3-(pentan-3-yloxy)cyclohex-1-enecarboxylate]
efficiency of treating influenza pneumonia in mice [8]: high efficiency

CCC(CC)O[C@@H]1C=C(C(=O)O)C[C@H](NC(=N)N)[C@H]1NC(=O)C(F)F [1.4, (3R,4R,5S)-5-guanidino-4-difluoroacetamido-3-(pentan-3-yloxy)cyclohex-1-enecarboxylic acid]
times more active than A2 [1]: 2.7
times more active than A4 [1]: 267

CCOC(=O)C1=C[C@@H](OC(CC)CC)[C@H](NC(=O)C(F)F)[C@@H](NC(=N)N)C1 [1.6, ethyl (3R,4R,5S)-5-guanidino-4-difluoroacetamido-3-(pentan-3-yloxy)cyclohex-1-enecarboxylate]
efficiency of treating influenza pneumonia in mice [8]: high efficiency

CCC(CC)O[C@@H]1C=C(C(=O)OC2CCCCC2)C[C@H](NC(=N)N)[C@H]1NC(=O)C(F)F [1.9, 2-cyclohexyl (3R,4R,5S)-5-guanidino-4-(2,2-difluoroacetamido)-3-(pentan-3-yloxy)cyclohex-1-enecarboxylate]
IC50 [1]: < 1 nM

CCC(CC)O[C@@H]1C=C(C(=O)OCCc2ccccc2)C[C@H](NC(=N)N)[C@H]1NC(=O)C(F)F [1.10, 2-phenylethyl (3R,4R,5S)-5-guanidino-4-(2,2-difluoroacetamido)-3-(pentan-3-yloxy)cyclohex-1-enecarboxylate]
IC50 [1]: < 1 nM

CCC(CC)O[C@@H]1C=C(C(=O)OCCc2cccnc2)C[C@H](NC(=N)N)[C@H]1NC(=O)C(F)F [1.11, 2-pyridin-3-ylethyl (3R,4R,5S)-5-guanidino-4-(2,2-difluoroacetamido)-3-(pentan-3-yloxy)cyclohex-1-enecarboxylate]
IC50 [1]: < 1 nM

CCC(CC)O[C@@H]1C=C(C(=O)OCCOC)C[C@H](NC(=N)N)[C@H]1NC(=O)C(F)F [1.12, 2-methoxyethyl (3R,4R,5S)-5-guanidino-4-(2,2-difluoroacetamido)-3-(pentan-3-yloxy)cyclohex-1-enecarboxylate]
IC50 [1]: < 1 nM

CCC(CC)O[C@@H]1C=C(C(=O)O)C[C@H](N)[C@H]1NC(C)=O [A2, (3R,4R,5S)-5-amino-4-acetamido-3-(pentan-3-yloxy)cyclohex-1-enecarboxylic acid, reference compound]
IC50 [2]: 9900 nM
IC50 [6]: 77500 nM

CCOC(=O)C1=C[C@@H](OC(CC)CC)[C@H](NC(C)=O)[C@@H](N)C1 [Tamiflu, reference compound]
death of treated animals by the time the last animal of virus control group died [8]: prevented completely
weight loss of treated animals [8]: did not lose weight

CC(=O)NC1C(NC(=N)N)C=C(C(=O)O)OC1C(O)C(O)CO [Zan, 5-Acetamido-2,3-didehydro-3,4,5-trideoxy-4-guanidino-alpha-D-glycero-D-galacto-2-nonulopyranosonic acid, reference compound]
IC50 [2]: 16000 nM
IC50 [6]: 51200 nM
